Assay results: ChEMBL document CHEMBL3351438, “Further optimization of the M5 NAM MLPCN probe ML375: tactics and challenges” (Bioorg Med Chem Lett, 2015)
Values joined by “and” are separate entries in the source; they are usually repeats but may differ in a detail not shown here. Identical values can stand only once.

Legend:
[1] = molecular target: T1, Muscarinic acetylcholine receptor M5 (Homo sapiens, UniProt P08912); experiment: Negative allosteric modulation of human muscarinic acetylcholine receptor M5 expressed in CHO cells assessed as inhibition of acetylcholine-induced calcium mobilization incubated for 150 secs prior to acetylcholine induction by Fluo4AM staining-based fluorescence assay
T1 sequence (P08912 whole entry): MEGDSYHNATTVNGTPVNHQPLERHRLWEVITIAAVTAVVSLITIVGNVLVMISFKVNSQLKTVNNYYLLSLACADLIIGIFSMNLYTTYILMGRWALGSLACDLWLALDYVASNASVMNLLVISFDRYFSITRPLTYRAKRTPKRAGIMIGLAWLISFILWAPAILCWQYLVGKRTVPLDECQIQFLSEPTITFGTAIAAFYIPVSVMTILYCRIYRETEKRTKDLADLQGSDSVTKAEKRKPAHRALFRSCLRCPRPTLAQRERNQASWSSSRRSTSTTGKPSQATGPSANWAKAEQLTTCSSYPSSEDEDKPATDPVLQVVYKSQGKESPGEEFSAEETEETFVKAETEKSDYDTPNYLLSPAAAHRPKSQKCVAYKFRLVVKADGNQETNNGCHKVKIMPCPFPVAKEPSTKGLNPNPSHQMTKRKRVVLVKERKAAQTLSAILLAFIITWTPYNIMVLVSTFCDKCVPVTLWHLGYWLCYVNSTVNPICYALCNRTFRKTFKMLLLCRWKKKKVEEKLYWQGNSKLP

Plasma [2] = experiment: Fraction unbound in Sprague-Dawley rat plasma; type: ADME, cell-free
Plasma [3] = experiment: Fraction unbound in human plasma; type: ADME, cell-free

Row | SMILES | IC50 [1] | Fu (Plasma [2]) | Fu (Plasma [3])
1 | COc1cc(C23c4ccccc4C(=O)N2CCN3C(=O)c2ccc(OC(C)C)cc2)ccc1F (racemic) | 1.3 µM | – | –
2 | COc1cc(C23c4ccccc4C(=O)N2CCN3C(=O)c2ccc(OC(C)C)cc2)ccc1Cl (racemic) | 6.4 µM | – | –
3 | COc1cc(C23c4ccccc4C(=O)N2CCN3C(=O)c2ccc(OC(C)C)cc2)ccc1C (racemic) | 2.2 µM | – | –
4 | COc1ccccc1C(=O)N1CCN2C(=O)c3ccccc3C12c1ccc(Cl)cc1 (racemic) | > 10 µM | – | –
5 | COc1cccc(C(=O)N2CCN3C(=O)c4ccccc4C23c2ccc(Cl)cc2)c1 (racemic) | 6.6 µM | – | –
6 | COc1ccc(C(=O)N2CCN3C(=O)c4ccccc4C23c2ccc(Cl)cc2)cc1 (racemic) | 1.8 µM | – | –
7 | CCOc1ccc(C(=O)N2CCN3C(=O)c4ccccc4C23c2ccc(Cl)cc2)cc1 (racemic) | 0.85 µM | – | –
8 | CC(C)Oc1ccc(C(=O)N2CCN3C(=O)c4ccccc4C23c2ccc(Cl)cc2)cc1 (racemic) | 0.79 µM | – | –
9 | O=C(c1cc(F)c(F)c(F)c1)N1CCN2C(=O)c3ccccc3C12c1ccc(Cl)cc1 (racemic) | 0.61 µM | – | –
10 | CN(C)c1ccc(C(=O)N2CCN3C(=O)c4ccccc4C23c2ccc(Cl)cc2)cc1 (racemic) | > 10 µM | – | –
11 | O=C(c1ccc(F)nc1)N1CCN2C(=O)c3ccccc3C12c1ccc(Cl)cc1 (racemic) | > 10 µM | – | –
12 | O=C(c1ccnc(F)c1)N1CCN2C(=O)c3ccccc3C12c1ccc(Cl)cc1 (racemic) | 5.8 µM | – | –
13 | O=C(c1ccnnc1)N1CCN2C(=O)c3ccccc3C12c1ccc(Cl)cc1 (racemic) | > 10 µM | – | –
14 | O=C(c1cc(F)nc(F)c1)N1CCN2C(=O)c3ccccc3C12c1ccc(Cl)cc1 (racemic) | > 10 µM | – | –
15 | COc1ccccc1C12c3ccccc3C(=O)N1CCN2C(=O)c1ccc(F)c(F)c1 (racemic) | 5.62 µM and 5.5 µM | – | –
16 | COc1cccc(C23c4ccccc4C(=O)N2CCN3C(=O)c2ccc(F)c(F)c2)c1 (racemic) | 1.6 µM | – | –
17 | COc1ccc(C23c4ccccc4C(=O)N2CCN3C(=O)c2ccc(F)c(F)c2)cc1 (racemic) | 1.3 µM | 0.064 | 0.037
18 | O=C(c1ccc(F)c(F)c1)N1CCN2C(=O)c3ccccc3C12c1ccc(Oc2ccccc2)cc1 (racemic) | > 10 µM | – | –
19 | O=C(c1ccc(F)c(F)c1)N1CCN2C(=O)c3ccccc3C12C1CCCCC1 (racemic) | 2.1 µM | 0.016 | 0.008
20 | O=C(c1ccc(F)c(F)c1)N1CCN2C(=O)c3ccccc3C12C1CCCC1 (racemic) | 2.4 µM | – | –
21 | O=C(c1ccc(F)c(F)c1)N1CCN2C(=O)c3ccccc3C12C1CCC1 (racemic) | > 10 µM | – | –
22 | O=C(c1ccc(F)c(F)c1)N1CCN2C(=O)c3ccccc3C12C1CC1 (racemic) | > 10 µM | – | –
23 | O=C(c1ccc(F)c(F)c1)N1CCN2C(=O)c3ccccc3C12C1CCOCC1 (racemic) | > 10 µM | – | –
24 | O=C(c1ccc(F)c(F)c1)N1CCN2C(=O)c3ccccc3C12c1ccccn1 (racemic) | > 10 µM | – | –
25 | O=C(c1ccc(F)c(F)c1)N1CCN2C(=O)c3ccccc3C12c1cccnc1 (racemic) | > 10 µM | – | –
26 | O=C(c1ccc(F)c(F)c1)N1CCN2C(=O)c3ccccc3C12c1ccncc1 (racemic) | > 10 µM | – | –
27 | CCOc1ccc(C23c4ccccc4C(=O)N2CCN3C(=O)c2ccc(F)c(F)c2)cc1 (racemic) | 3.2 µM | – | –
